{"source": "patent US10898576B2", "about": "“Glucocorticoid combined with polyethylene glycol-modified interleukin 2 for treating respiratory disease” (priority 2016, dated 2021)", "key": {"CTLL-2 cell": {"test_system": "CTLL-2 cell", "assay": "CTLL-2 cell assay of IL-2 activity", "format": "cell-based", "settings": "compared with IL-2 working standard"}, "asthma mice [1]": {"test_system": "asthma mice", "assay": "Example 6: asthma mice challenged days 9-18, local atomization vs intraperitoneal Dex, lung function and pathology", "format": "in vivo, BALB/c mice", "settings": "40 μg Dex per mouse", "method": "(§1) Lung histopathology. The lungs of mice were fixed in 10% formalin, embedded in paraffin, sectioned, stained with H&E (Merck & Co, Inc) and PAS (Sigma), respectively, and examined under a 20-fold microscope.\nLung function measurement. After being anesthetized with 2% pentobarbital sodium, the mice were subjected to respiratory provocation test with methacholine (Sigma) at 3.125 mg/ml, 6.25 mg/ml, and 12.5 mg/ml prepared in PBS, respectively. The airway resistance curve was plotted and analyzed (FinePoint NAM). The assay was performed using the BUXCO Airway Resistance and Lung Compliance System (BUXCO Electronics).\nModeling of asthma model mice and administration. The same mice as in Example 1 were used for asthma modeling, which were sensitized by intraperitoneal injection with 100 μg of ovalbumin (OVA) (Sigma) and 2 mg of Al(OH)3 for injection (Sigma) on days 1 and 8, and challenged by daily nasal instillation with 20 μl of 2% OVA on days 9-18. According to the purpose of the experiment, 40 μg Dex was intraperitoneally injected on days 12-18, 14-18 and 16-18, or 25,000 IU IL-2(PEG)+5 μg Bud was administered by atomization on days 16-18, respectively.\nAdministration and histopathological analysis were performed in the same manner as in Example 2, and lung function test was performed in the same manner as in Example 3. […]"}, "asthma mice [2]": {"test_system": "asthma mice", "assay": "Lung histopathology (H&E, PAS) of OVA asthma mice", "format": "in vivo, BALB/c mice", "settings": "same dose of the drug alone as in the combination, atomization days 12-14", "method": "(§2) Female BALB/c mice aged 6-8 weeks (purchased from SLAC Laboratory Animal Co., Ltd.) were used for modeling of asthma, which were sensitized by intraperitoneal injection with 100 μg of ovalbumin (OVA) (Sigma) and 2 mg of Al(OH)3 for injection (Sigma) on days 1 and 8, and challenged by daily nasal instillation with 20 μl of 2% OVA on days 9-14 (FIG. 1A).\n(§3) The asthma mice model of Example 1 were subjected to drug intervention while challenge by nasal instillation on days 12-14. The specific administration method was that the mice were anesthetized with 7% chloral hydrate (Sangon Biotech (Shanghai) Co., Ltd.) and then administrated quantitatively through atomization in the lung using an atomization metered dosing device (MicroSprayer®—Model IA-1B), and the administration volume was fixed at 25 ul/mouse, and the administration dose was adjusted by the level of concentration. On the 15th day, relevant indicators were detected.\nas §1"}, "[3]": {"test_system": "Treg in bronchoalveolar lavage fluid", "assay": "Flow cytometry of Treg in bronchoalveolar lavage fluid of OVA asthma mice after atomization in the lung", "format": "in vivo, BALB/c mice", "settings": "same dose of the drug alone as in the combination, atomization days 12-14", "method": "as §2, §3\nCollection of bronchoalveolar lavage fluid. The mice were sacrificed by cervical dislocation. […] The IFN-γ, IL-4, IL-10, and IL-13 in the supernatant were measured by using commercial ELISA kit (R&D Corp).\nFlow cytometry. […] All results were analyzed by FlowJo software (Treestar)."}}}
{"molecule": "PEG-modified IL-2: IL-2 modified with a non-branched PEG of a molecular weight of 20 kD, main site N-terminus", "values": [{"measurement": "activity", "setting": "CTLL-2 cell", "value": "comparable to that of the IL-2 working standard"}]}
{"molecule": "C[C@@H]1C[C@H]2[C@@H]3CCC4=CC(=O)C=C[C@]4(C)[C@@]3(F)[C@@H](O)C[C@]2(C)[C@@]1(O)C(=O)CO", "note": "[Dex, dexamethasone]", "values": [{"measurement": "duration of intraperitoneal injection required to exert a therapeutic effect on asthma", "setting": "asthma mice [1]", "value": "at least 7 consecutive days"}]}
{"molecule": "IL-2: human-derived IL-2, sequence SEQ ID NO. 1 (Xiamen Amoytop Biotech Co., Ltd.)", "values": [{"measurement": "pathological manifestations of lung inflammation, single drug alone", "setting": "asthma mice [2]", "value": "could not be achieved"}, {"measurement": "Treg in bronchoalveolar lavage fluid, single drug alone", "setting": "[3]", "value": "could not be achieved"}]}
